Reference: patent publication US8202879B2, “Quinazoline derivatives having tyrosine kinase inhibitory activity” (Shionogi & Co., Ltd., priority 2005, dated 2012)
Read-outs that look alike come from different tables or passages of the source. One block for each compound: values may come before it.

Columns and labels:
HER2 = target: T1, HER2 (Homo sapiens, UniProt P04626); assay: Enzyme inhibitory activity on HER2 (time resolution fluorescence, biotinylated poly-Glu-Tyr substrate); type: biochemical
T1 construct: purchased Carna Biosciences, Inc; host or cells: insect cell expression system
Summary of the method: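 Insect-cell-expressed HER2 (1000 ng/ml working stock) with biotinylated poly-Glu-Tyr (4:1; 3.125 μg/ml stock) and ATP (290 μM solution) in TBS with MgCl2, MnCl2, Na3VO4 and BSA, 60 min at room temperature. 10-point 4-fold dilutions from a 1 mM top solution. Phosphotyrosine detected by TR-FRET with Eu-antibody and streptavidin-XL.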

EGFR = target: T2, EGFR (Homo sapiens, UniProt P00533); assay: Enzyme inhibitory activity on EGFR (time resolution fluorescence, biotinylated poly-Glu-Tyr substrate); type: biochemical
T2 construct: purchased Carna Biosciences, Inc; host or cells: insect cell expression system
Summary of the method: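 Insect-cell-expressed EGFR phosphorylated biotinylated poly-Glu-Tyr (4:1) for 60 min at room temperature in TBS with MgCl2, MnCl2, Na3VO4 and BSA. Enzyme 250 ng/ml, substrate 3.125 μg/ml and ATP 125 μM as working solutions. EDTA stop; Eu anti-phosphotyrosine/streptavidin-XL time-resolved fluorescence read; 10-point 4-fold dilutions.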

BT-474 = assay: In vitro cell proliferation inhibition, WST assay; type: cell-based, human; conditions: BT-474 cells, cultured for 3 days, read-out: BT-474 (nM) proliferation inhibitory activity (IC50 value)
Description: Test of In Vitro Cell Proliferation Inhibition of Test Compound
As a human-derived cancer cell strain, BT-474 was used. Cells were all cultured in a 37° C., 5% CO2 incubator in a medium in which 10% bovine fetal serum (ICN) and 50 units ml penicillin/60 μg/ml streptomycin solution (GIBCO) were added to Dulbecco's Modified Essential Medium (DMEM, Nacalai Tesque, Inc).

[1] = enzyme reaction at room temperature for 60 minutes
[2] = HER2 purified from insect cell expression system, ATP solution 290 μM, room temperature, 60 minutes
[3] = EGFR purified from insect cell expression system, ATP solution 125 μM, room temperature, 60 minutes

T2 sequence (P00533 25-1210): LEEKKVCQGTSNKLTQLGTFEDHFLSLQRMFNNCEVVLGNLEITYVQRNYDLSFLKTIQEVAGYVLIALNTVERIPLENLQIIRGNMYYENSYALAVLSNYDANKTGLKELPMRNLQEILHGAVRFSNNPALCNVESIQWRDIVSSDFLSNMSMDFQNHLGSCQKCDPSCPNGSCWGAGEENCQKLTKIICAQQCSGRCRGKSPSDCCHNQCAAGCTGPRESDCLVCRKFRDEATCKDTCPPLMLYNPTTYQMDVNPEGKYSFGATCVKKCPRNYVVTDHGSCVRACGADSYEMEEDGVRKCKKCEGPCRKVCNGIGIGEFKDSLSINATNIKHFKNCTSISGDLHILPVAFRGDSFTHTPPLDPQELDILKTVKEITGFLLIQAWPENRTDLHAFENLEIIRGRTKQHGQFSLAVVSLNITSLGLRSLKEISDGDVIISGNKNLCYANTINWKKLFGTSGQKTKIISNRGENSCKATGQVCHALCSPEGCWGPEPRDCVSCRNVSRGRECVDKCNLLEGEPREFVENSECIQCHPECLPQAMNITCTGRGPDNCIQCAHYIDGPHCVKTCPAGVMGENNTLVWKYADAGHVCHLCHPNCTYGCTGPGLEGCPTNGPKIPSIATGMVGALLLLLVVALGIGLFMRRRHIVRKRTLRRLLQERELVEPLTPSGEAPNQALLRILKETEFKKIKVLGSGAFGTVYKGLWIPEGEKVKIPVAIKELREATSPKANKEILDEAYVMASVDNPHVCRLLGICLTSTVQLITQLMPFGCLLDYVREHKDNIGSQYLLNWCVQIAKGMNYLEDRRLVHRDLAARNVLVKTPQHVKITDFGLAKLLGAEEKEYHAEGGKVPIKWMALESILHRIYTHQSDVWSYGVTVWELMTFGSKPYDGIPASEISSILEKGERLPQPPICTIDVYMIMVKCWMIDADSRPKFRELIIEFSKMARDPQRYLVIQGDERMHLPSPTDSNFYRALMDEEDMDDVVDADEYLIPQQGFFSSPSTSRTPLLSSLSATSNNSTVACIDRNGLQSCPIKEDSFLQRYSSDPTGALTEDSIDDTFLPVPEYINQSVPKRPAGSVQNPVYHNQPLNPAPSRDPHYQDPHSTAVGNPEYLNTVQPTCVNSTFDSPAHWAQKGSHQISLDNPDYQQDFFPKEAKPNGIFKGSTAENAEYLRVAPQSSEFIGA
T1 sequence (P04626 23-1255): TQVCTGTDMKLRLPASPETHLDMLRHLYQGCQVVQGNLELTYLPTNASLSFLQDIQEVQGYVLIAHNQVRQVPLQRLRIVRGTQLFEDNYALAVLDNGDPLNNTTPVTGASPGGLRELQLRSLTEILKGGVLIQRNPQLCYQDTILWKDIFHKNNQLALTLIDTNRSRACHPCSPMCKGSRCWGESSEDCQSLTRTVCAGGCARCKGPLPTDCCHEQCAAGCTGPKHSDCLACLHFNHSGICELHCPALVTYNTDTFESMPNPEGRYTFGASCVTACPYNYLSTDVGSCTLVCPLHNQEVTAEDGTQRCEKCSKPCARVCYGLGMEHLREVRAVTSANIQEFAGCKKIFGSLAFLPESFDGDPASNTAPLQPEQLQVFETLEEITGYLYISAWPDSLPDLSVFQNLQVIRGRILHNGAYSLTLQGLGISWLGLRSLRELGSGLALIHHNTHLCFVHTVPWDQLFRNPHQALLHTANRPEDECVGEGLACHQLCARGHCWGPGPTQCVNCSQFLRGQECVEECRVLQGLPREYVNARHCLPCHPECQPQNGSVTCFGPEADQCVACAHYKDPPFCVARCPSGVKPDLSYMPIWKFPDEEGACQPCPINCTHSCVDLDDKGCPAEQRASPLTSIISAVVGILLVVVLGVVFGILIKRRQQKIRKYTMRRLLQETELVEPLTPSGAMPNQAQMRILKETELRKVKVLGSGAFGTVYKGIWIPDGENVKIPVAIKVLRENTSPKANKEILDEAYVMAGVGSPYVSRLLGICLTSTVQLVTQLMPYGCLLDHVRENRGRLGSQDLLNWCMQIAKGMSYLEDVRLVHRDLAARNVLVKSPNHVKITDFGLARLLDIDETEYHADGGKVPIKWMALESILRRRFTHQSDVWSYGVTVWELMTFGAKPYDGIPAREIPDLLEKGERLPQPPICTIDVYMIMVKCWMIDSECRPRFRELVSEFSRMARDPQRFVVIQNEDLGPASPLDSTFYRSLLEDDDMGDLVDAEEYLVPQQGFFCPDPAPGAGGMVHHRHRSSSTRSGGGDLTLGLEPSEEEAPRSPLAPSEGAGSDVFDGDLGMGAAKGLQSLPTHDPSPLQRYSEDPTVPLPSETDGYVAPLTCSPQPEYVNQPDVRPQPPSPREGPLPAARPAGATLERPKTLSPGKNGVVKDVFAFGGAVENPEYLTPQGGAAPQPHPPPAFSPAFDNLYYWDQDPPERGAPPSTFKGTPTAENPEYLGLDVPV

SMILES: CC#C/C(=N\OCCN1CCCC(O)C1)c1ccc2ncnc(Nc3ccc(OCc4ccccn4)c(Cl)c3)c2c1 (stereo not drawn) [VIII-128]
IC50 (HER2; [1]): 17 nM
IC50 (EGFR; [1]): 15 nM
IC50 (BT-474; Homo sapiens, BT-474, 72 h): 37 nM

SMILES: CC#C/C(=N\OCC(=O)NCCO)c1ccc2ncnc(Nc3ccc(OCc4cccc(F)c4)c(Cl)c3)c2c1 [VIII-224]
IC50 (HER2; [1]): 118 nM
IC50 (EGFR; [1]): 122 nM
IC50 (BT-474; Homo sapiens, BT-474, 72 h): 1.2 nM

SMILES: CC#C/C(=N\OC[C@H]1CN(C)CCN1)c1ccc2ncnc(Nc3ccc(OCc4ccccn4)c(Cl)c3)c2c1 [VIII-176]
IC50 (HER2; [1]): 26 nM
IC50 (EGFR; [1]): 23 nM
IC50 (BT-474; Homo sapiens, BT-474, 72 h): 26 nM

SMILES: CC#C/C(=N\OCCNC1CCCCC1)c1ccc2ncnc(Nc3ccc(OCc4cccc(F)c4)c(Cl)c3)c2c1 [VIII-28]
IC50 (HER2; [2]): 167 nM
IC50 (EGFR; [3]): 162 nM
IC50 (BT-474): 72 nM

SMILES: CC#CC(=NOCC1CNCCN1)c1ccc2ncnc(Nc3ccc(OCc4cccc(F)c4)c(Cl)c3)c2c1 (stereo not drawn) [VIII-103]
IC50 (HER2; [2]): 5.6 nM
IC50 (EGFR; [3]): 3.9 nM
IC50 (BT-474; Homo sapiens, BT-474, 72 h): 11 nM

SMILES: CC#C/C(=N\OCCNC[C@@H]1COC(=O)N1)c1ccc2ncnc(Nc3ccc(OCc4cccc(F)c4)c(Cl)c3)c2c1 [VIII-59]
IC50 (HER2; [2]): 278 nM
IC50 (EGFR; [3]): 115 nM
IC50 (BT-474): 11 nM

SMILES: CC#C/C(=N\OC[C@@H](COC)NC)c1ccc2ncnc(Nc3ccc(OCc4ccccn4)c(Cl)c3)c2c1 [VIII-131]
IC50 (HER2; [1]): 4.4 nM
IC50 (EGFR; [1]): 5.8 nM
IC50 (BT-474; Homo sapiens, BT-474, 72 h): 14 nM

SMILES: CC#C/C(=N\O[C@H]1CN[C@H](CO)C1)c1ccc2ncnc(Nc3ccc(OCc4ccccn4)c(Cl)c3)c2c1 [VIII-161]
IC50 (HER2; [1]): 15 nM
IC50 (EGFR; [1]): 14 nM
IC50 (BT-474; Homo sapiens, BT-474, 72 h): 49 nM

SMILES: CC#C/C(=N\OC[C@@H]1NCCO[C@H]1C)c1ccc2ncnc(Nc3ccc(OCc4cccc(F)c4)c(Cl)c3)c2c1 [VIII-106]
IC50 (HER2; [2]): 148 nM
IC50 (EGFR; [3]): 160 nM
IC50 (BT-474; Homo sapiens, BT-474, 72 h): 16 nM

SMILES: CC#C/C(=N\OC[C@@H]1CNCC(=O)N1)c1ccc2ncnc(Nc3ccc(OCc4cccc(F)c4)c(Cl)c3)c2c1 [VIII-119]
IC50 (HER2; [2]): 77 nM
IC50 (EGFR; [3]): 81 nM
IC50 (BT-474): 31 nM

SMILES: CC#C/C(=N\OC[C@H]1COCCN1)c1ccc2ncnc(Nc3ccc(OCc4cccc(F)c4)c(Cl)c3)c2c1 [VIII-102]
IC50 (HER2; [2]): 121 nM
IC50 (EGFR; [3]): 72 nM
IC50 (BT-474): 7 nM

SMILES: CC#C/C(=N\OC[C@@H]1CCCN1C)c1ccc2ncnc(Nc3ccc(OCc4ccccn4)c(Cl)c3)c2c1 [VIII-154]
IC50 (HER2; [1]): 9 nM
IC50 (EGFR; [1]): 9.5 nM
IC50 (BT-474; Homo sapiens, BT-474, 72 h): 31 nM

SMILES: CC#C/C(=N\OCCNC)c1ccc2ncnc(Nc3ccc(COc4cccc(F)c4)c(Cl)c3)c2c1 [VIII-211]
IC50 (HER2; [1]): 18 nM
IC50 (EGFR; [1]): 23 nM
IC50 (BT-474; Homo sapiens, BT-474, 72 h): 16 nM

SMILES: CC#CC(=NOCCN1CCOCC1)c1ccc2ncnc(Nc3ccc(OCc4cccc(F)c4)c(Cl)c3)c2c1 [VIII-10]
IC50 (HER2; [2]): 484 nM
IC50 (EGFR; [3]): 409 nM
IC50 (BT-474; Homo sapiens, BT-474, 72 h): 27 nM

SMILES: CC#C/C(=N\OC[C@@H]1COCCN1)c1ccc2ncnc(Nc3ccc(S(=O)(=O)c4ccccc4)cc3)c2c1 [VIII-207]
IC50 (HER2; [1]): 17 nM
IC50 (EGFR; [1]): 21 nM
IC50 (BT-474; Homo sapiens, BT-474, 72 h): 68 nM

SMILES: CC#C/C(=N\OCCNCC(F)(F)F)c1ccc2ncnc(Nc3ccc(OCc4cccc(F)c4)c(Cl)c3)c2c1 [VIII-57]
IC50 (HER2; [2]): 303 nM
IC50 (EGFR; [3]): 301 nM
IC50 (BT-474): 15 nM

SMILES: CC#C/C(=N\OC[C@H]1CCCN1)c1ccc2ncnc(Nc3ccc(OCc4ccccn4)c(Cl)c3)c2c1 [VIII-157]
IC50 (HER2; [1]): 4 nM
IC50 (EGFR; [1]): 4.1 nM
IC50 (BT-474; Homo sapiens, BT-474, 72 h): 25 nM

SMILES: CC#C/C(=N\OC[C@@H]1CNC[C@@H](C)O1)c1ccc2ncnc(Nc3ccc(OCc4cccc(F)c4)c(Cl)c3)c2c1 [VIII-110]
IC50 (HER2; [2]): 35 nM
IC50 (EGFR; [3]): 29 nM
IC50 (BT-474): 21 nM

Results, then the compound that gave them:

IC50 (HER2; [1]): 3.3 nM
IC50 (EGFR; [1]): 4.5 nM
IC50 (BT-474; Homo sapiens, BT-474, 72 h): 25 nM
SMILES: CC#C/C(=N\OCCNC)c1ccc2ncnc(Nc3ccc(S(=O)(=O)c4ccccc4)cc3)c2c1 [VIII-214]

IC50 (HER2; [1]): 6 nM
IC50 (EGFR; [1]): 7.8 nM
IC50 (BT-474; Homo sapiens, BT-474, 72 h): 5 nM
SMILES: CNCCO/N=C(\C#CCOC)c1ccc2ncnc(Nc3ccc(OCc4ccccn4)c(Cl)c3)c2c1 [VIII-180]

IC50 (HER2; [1]): 7.9 nM
IC50 (EGFR; [1]): 10 nM
IC50 (BT-474; Homo sapiens, BT-474, 72 h): 46 nM
SMILES: CC#C/C(=N\OCCNC1CCOCC1)c1ccc2ncnc(Nc3ccc(OCc4ccccn4)c(Cl)c3)c2c1 [VIII-141]

IC50 (HER2; [1]): 13 nM
IC50 (EGFR; [1]): 13 nM
IC50 (BT-474; Homo sapiens, BT-474, 72 h): 25 nM
SMILES: CC#C/C(=N\OCCCNC)c1ccc2ncnc(Nc3ccc(OCc4ccccn4)c(Cl)c3)c2c1 [VIII-147]

IC50 (HER2; [2]): 202 nM
IC50 (EGFR; [3]): 238 nM
IC50 (BT-474): 60 nM
SMILES: CC#C/C(=N\OC[C@@H]1COCCN1CC#N)c1ccc2ncnc(Nc3ccc(OCc4cccc(F)c4)c(Cl)c3)c2c1 [VIII-104]

IC50 (HER2; [1]): 7.4 nM
IC50 (EGFR; [1]): 7.1 nM
IC50 (BT-474; Homo sapiens, BT-474, 72 h): 14 nM
SMILES: CC#C/C(=N\OCCNCCNC(C)=O)c1ccc2ncnc(Nc3ccc(OCc4ccccn4)c(Cl)c3)c2c1 [VIII-134]

IC50 (HER2; [2]): 64 nM
IC50 (EGFR; [3]): 45 nM
IC50 (BT-474; Homo sapiens, BT-474, 72 h): 9 nM
SMILES: CC#C/C(=N\OCCNCCNS(C)(=O)=O)c1ccc2ncnc(Nc3ccc(OCc4cccc(F)c4)c(Cl)c3)c2c1 [VIII-51]

IC50 (HER2; [2]): 199 nM
IC50 (EGFR; [3]): 275 nM
IC50 (BT-474): 12 nM
SMILES: CC#C/C(=N\OC[C@@H]1CCCN1CC#N)c1ccc2ncnc(Nc3ccc(OCc4cccc(F)c4)c(Cl)c3)c2c1 [VIII-73]

IC50 (HER2; [2]): 33 nM
IC50 (EGFR; [3]): 32 nM
IC50 (BT-474): 11 nM
SMILES: CC#C/C(=N\OC[C@H]1CCCN1)c1ccc2ncnc(Nc3ccc(OCc4cccc(F)c4)c(Cl)c3)c2c1 [VIII-85]

IC50 (HER2; [1]): 14 nM
IC50 (EGFR; [1]): 14 nM
IC50 (BT-474; Homo sapiens, BT-474, 72 h): 18 nM
SMILES: CC#C/C(=N\OCCNCCS(C)(=O)=O)c1ccc2ncnc(Nc3ccc(OCc4ccccn4)c(Cl)c3)c2c1 [VIII-132]

IC50 (HER2; [1]): 28 nM
IC50 (EGFR; [1]): 25 nM
IC50 (BT-474; Homo sapiens, BT-474, 72 h): 14 nM
SMILES: CC#C/C(=N\OC[C@H]1CN(CCO)CCN1)c1ccc2ncnc(Nc3ccc(OCc4ccccn4)c(Cl)c3)c2c1 [VIII-174]

IC50 (HER2; [2]): 152 nM
IC50 (EGFR; [3]): 58 nM
IC50 (BT-474): 13 nM
SMILES: CC#C/C(=N\OCCNCCS(C)(=O)=O)c1ccc2ncnc(Nc3ccc(OCc4cccc(F)c4)c(Cl)c3)c2c1 [VIII-45]

IC50 (HER2; [1]): 7.6 nM
IC50 (EGFR; [1]): 7.3 nM
IC50 (BT-474; Homo sapiens, BT-474, 72 h): 31 nM
SMILES: CC#C/C(=N\OCCN1CCN(C)CC1)c1ccc2ncnc(Nc3ccc(OCc4ccccn4)c(Cl)c3)c2c1 [VIII-164]

IC50 (HER2; [1]): 6.4 nM
IC50 (EGFR; [1]): 7 nM
IC50 (BT-474; Homo sapiens, BT-474, 72 h): 24 nM
SMILES: CC#C/C(=N\OC[C@@H]1C[C@@H](O)CN1)c1ccc2ncnc(Nc3ccc(OCc4ccccn4)c(Cl)c3)c2c1 [VIII-156]

IC50 (HER2; [2]): 31 nM
IC50 (EGFR; [3]): 29 nM
IC50 (BT-474; Homo sapiens, BT-474, 72 h): 37 nM
SMILES: CC/C(=N\OCCNC)c1ccc2ncnc(Nc3ccc(OCc4cccc(F)c4)c(Cl)c3)c2c1 [VIII-20]

IC50 (HER2; [1]): 11 nM
IC50 (EGFR; [1]): 10 nM
IC50 (BT-474; Homo sapiens, BT-474, 72 h): 21 nM
SMILES: CC#C/C(=N\OC[C@@H]1CCCN1)c1ccc2ncnc(Nc3ccc(OCc4ccccn4)c(Cl)c3)c2c1 [VIII-153]

IC50 (HER2; [1]): 19 nM
IC50 (EGFR; [1]): 16 nM
IC50 (BT-474; Homo sapiens, BT-474, 72 h): 15 nM
SMILES: CC#C/C(=N\OC[C@H]1CCCN1CCO)c1ccc2ncnc(Nc3ccc(OCc4ccccn4)c(Cl)c3)c2c1 [VIII-159]

IC50 (HER2; [1]): 21 nM
IC50 (EGFR; [1]): 9 nM
IC50 (BT-474; Homo sapiens, BT-474, 72 h): 14 nM
SMILES: CC#C/C(=N\OC[C@@H]1COCCN1)c1ccc2ncnc(Nc3ccc4c(cnn4Cc4cccc(F)c4)c3)c2c1 [VIII-197]

IC50 (HER2; [1]): 4.3 nM
IC50 (EGFR; [1]): 5.5 nM
IC50 (BT-474; Homo sapiens, BT-474, 72 h): 30 nM
SMILES: CC#C/C(=N\OCCNC[C@H](C)CO)c1ccc2ncnc(Nc3ccc(OCc4ccccn4)c(Cl)c3)c2c1 [VIII-140]

IC50 (HER2; [2]): 888 nM
IC50 (EGFR; [3]): 300 nM
IC50 (BT-474; Homo sapiens, BT-474, 72 h): 64 nM
SMILES: Fc1cccc(COc2ccc(Nc3ncnc4ccc(C(=NOCCN5CCOCC5)c5ccccc5)cc34)cc2Cl)c1 [VIII-13]
